Results as given in ChEMBL document CHEMBL1201862, “PubChem BioAssay data set” (2004).
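The compound was tested at five concentrations on cells cultured in 96-well plates, with a 48-hour exposure period. At the GI50, growth is halved.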 Calls of active or inactive are those of the source. Rule as the data show it: active = GI50 up to about 1.1 µM and inactive = higher.

Assays:
Assay in all cases: inhibition of tumour cell growth, NCI panel, 48 h
HOP-18 = tested on: HOP-18
KM-20L2 = tested on: KM-20L2
DMS-273 = tested on: DMS-273
M19-MEL = tested on: M19-MEL
DLD-1 = tested on: DLD-1
DMS-114 = tested on: DMS-114
RXF 631 = tested on: RXF 631
SNB-78 = tested on: SNB-78
XF498 = tested on: XF498

Measured: GI50

C=CN1C(=O)OC[C@@H]1c1ccccc1
inactive: HOP-18 > 100 µM | KM-20L2 > 100 µM | DMS-273 20 µM | M19-MEL > 100 µM | DLD-1 > 100 µM | DMS-114 34.5 µM | RXF 631 > 100 µM | SNB-78 > 100 µM | XF498 83 µM
